Assay results published in patent US6358885B1, “Substituted phenylheterocyclic herbicides” (Mississippi State University, priority 1992, dated 2002).

How the values were obtained:
[1] = system: sunflower; test: Test F preemergence/postemergence greenhouse plant response rating 0 to 100; format: in vivo, Helianthus annuus cv. ‘Russian Giant’; conditions: POSTEMERGENCE, 0 to 100 scale
From the text: (§1) Compounds evaluated in this test were formulated in a non-phytoxic solvent and applied to the soil surface before plant seedlings emerged (preemergence application) and to plants that were in the one-to-four leaf stage (postemergence application). A sandy loam soil was used for the preemergence test while a mixture of sandy loam soil and greenhouse potting mix in a 60:40 ratio was used for the postemergence test. Test compounds were applied within approximately one day after planting seeds for the preemergence test. Plantings of these crops and weed species were adjusted to produce plants of appropriate size for the postemergence test. All plant species were grown using normal greenhouse practices. Crop and weed species include winter barley (Hordeum vulgare cv. ‘Igri’), blackgrass (Alopecurus myosuroides), chickweed (Stellaria media), downy brome (Bromus tectorum), field violet (Viola arvensis), galium (Galium aparine), green foxtail (Setaria viridis), kochia (Kochia scoparia), lambsquarters (Chenopodium album), speedwell (Veronica persica), rape (Brassica napus), ryegrass (Lolium multiflorum), sugar beet (Beta vulgaris cv. ‘USl’), sunflower (Helianthus annuus cv. ‘Russian Giant’), spring wheat (Triticum aestivum cv. ‘ERA’), winter wheat (Triticum aestivum cv. ‘Talent’), wild buckwheat (Polygonum convolvulus), wild mustard (Sinapis arvensis), wild oat (Avena fatua), and wild radish (Raphanus raphanistrum). Blackgrass, galium and wild oat were treated at two growth stages. […] Treated plants and untreated controls were maintained in a greenhouse for approximately 21 to 28 days, after which all treated plants were compared to untreated controls and visually evaluated. […] A dash response (-) means no test result.

[2] = system: wild mustard; test: as above; format: in vivo, Sinapis arvensis; conditions: POSTEMERGENCE, 0 to 100 scale
From the text: as §1

[3] = system: barnyardgrass; test: Test E paddy water application plant response rating 0 to 100; format: in vivo, Echinochloa crus-galli; conditions: Flood, 0 to 100 scale, approx. 21 days
How it was run: (§2)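 Greenhouse paddy test: flooded pots of silt loam (water 2 cm over soil) received the solvent-formulated chemical directly in the water.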

[4] = system: waterchestnut; test: Test D paddy water application plant response rating 0 to 100; format: in vivo, Eleocharis spp.; conditions: 0 to 100 scale, approx. 21 days
How it was run: (§3)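 Silt loam, saturated; flood 3 cm kept throughout. Compound in non-phytotoxic solvent dosed into paddy water.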

[5] = system: sugar beet; test: Test F preemergence/postemergence greenhouse plant response rating 0 to 100; format: in vivo, Beta vulgaris cv. ‘USl’; conditions: POSTEMERGENCE, 0 to 100 scale
From the text: as §1

[6] = system: Japonica rice; test: Test E paddy water application plant response rating 0 to 100; format: in vivo, oryza sativa; conditions: Flood, 0 to 100 scale, approx. 21 days
How it was run: as §2

[7] = system: Japonica rice; test: Test D paddy water application plant response rating 0 to 100; format: in vivo, Oryza sativa; conditions: 0 to 100 scale, approx. 21 days
How it was run: as §3

[8] = system: barnyardgrass; test: as above; format: in vivo, Echinochloa crus-galli; conditions: 0 to 100 scale, approx. 21 days
How it was run: as §3

[9] = system: wild buckwheat; test: Test F preemergence/postemergence greenhouse plant response rating 0 to 100; format: in vivo, Polygonum convolvulus; conditions: POSTEMERGENCE, 0 to 100 scale
From the text: as §1

[10] = system: umbrella sedge; test: Test D paddy water application plant response rating 0 to 100; format: in vivo, Cyperus difformis; conditions: 0 to 100 scale, approx. 21 days
How it was run: as §3

[11] = system: kochia; test: Test F preemergence/postemergence greenhouse plant response rating 0 to 100; format: in vivo, Kochia scoparia; conditions: POSTEMERGENCE, 0 to 100 scale
From the text: as §1

[12] = system: downy brome; test: as above; format: in vivo, Bromus tectorum; conditions: POSTEMERGENCE, 0 to 100 scale
From the text: as §1

[13] = system: duck salad; test: Test D paddy water application plant response rating 0 to 100; format: in vivo, Heteranthera limosa; conditions: 0 to 100 scale, approx. 21 days
How it was run: as §3

[14] = system: rape; test: Test F preemergence/postemergence greenhouse plant response rating 0 to 100; format: in vivo, Brassica napus; conditions: POSTEMERGENCE, 0 to 100 scale
From the text: as §1

[15] = system: arrowhead; test: Test D paddy water application plant response rating 0 to 100; format: in vivo, Sagittaria spp.; conditions: 0 to 100 scale, approx. 21 days
How it was run: as §3

Fc1cc(Cl)c(OCCCl)cc1-c1nn2c(c1Cl)CCCC2 [Compound 49]
Sunflower plant response rating ([1]; Rate 2 g/ha): 0
Sunflower plant response rating ([1]; Rate 4 g/ha): 0
Sunflower plant response rating ([1]; Rate 8 g/ha): 0
Sunflower plant response rating ([1]; Rate 16 g/ha): 0
Sunflower plant response rating ([1]; Rate 32 g/ha): 0
Wild mustard plant response rating ([2]; Rate 2 g/ha): 90
Wild mustard plant response rating ([2]; Rate 4 g/ha): 100
Wild mustard plant response rating ([2]; Rate 8 g/ha): 100
Wild mustard plant response rating ([2]; Rate 32 g/ha): 100
Barnyardgrass 2 plant response rating ([3]; Rate 8 g/ha): 25
Barnyardgrass 3 plant response rating ([3]; Rate 8 g/ha): 35
Barnyardgrass 2 plant response rating ([3]; Rate 16 g/ha): 45
Barnyardgrass 3 plant response rating ([3]; Rate 16 g/ha): 45
Barnyardgrass 2 plant response rating ([3]; Rate 32 g/ha): 90
Barnyardgrass 3 plant response rating ([3]; Rate 32 g/ha): 55
Barnyardgrass 2 plant response rating ([3]; Rate 64 g/ha): 100
Barnyardgrass 3 plant response rating ([3]; Rate 64 g/ha): 70
Waterchestnut plant response rating ([4]; Rate 4 g/ha): 0
Waterchestnut plant response rating ([4]; Rate 8 g/ha): 0
Waterchestnut plant response rating ([4]; Rate 16 g/ha): 0
Waterchestnut plant response rating ([4]; Rate 32 g/ha): 10
Waterchestnut plant response rating ([4]; Rate 64 g/ha): 20
Sugar beet plant response rating ([5]; Rate 2 g/ha): 70
Sugar beet plant response rating ([5]; Rate 4 g/ha): 100
Sugar beet plant response rating ([5]; Rate 8 g/ha): 100
Sugar beet plant response rating ([5]; Rate 32 g/ha): 100
Japonica 1 plant response rating ([6]; Rate 8 g/ha): 0
Japonica 2 plant response rating ([6]; Rate 8 g/ha): 0
Japonica 1 plant response rating ([6]; Rate 16 g/ha): 0
Japonica 2 plant response rating ([6]; Rate 16 g/ha): 20
Japonica 1 plant response rating ([6]; Rate 32 g/ha): 0
Japonica 2 plant response rating ([6]; Rate 32 g/ha): 30
Japonica 1 plant response rating ([6]; Rate 64 g/ha): 25
Japonica 2 plant response rating ([6]; Rate 64 g/ha): 30
Japonica rice plant response rating ([7]; Rate 4 g/ha): 10
Japonica rice plant response rating ([7]; Rate 8 g/ha): 10
Japonica rice plant response rating ([7]; Rate 16 g/ha): 10
Japonica rice plant response rating ([7]; Rate 32 g/ha): 15
Japonica rice plant response rating ([7]; Rate 64 g/ha): 20
Barnyardgrass 2 plant response rating ([8]; Rate 4 g/ha): 0
Barnyardgrass 2 plant response rating ([8]; Rate 8 g/ha): 20
Barnyardgrass 2 plant response rating ([8]; Rate 16 g/ha): 30
Barnyardgrass 2 plant response rating ([8]; Rate 32 g/ha): 70
Barnyardgrass 2 plant response rating ([8]; Rate 64 g/ha): 100
Wild buckwheat plant response rating ([9]; Rate 2 g/ha): 100
Wild buckwheat plant response rating ([9]; Rate 4 g/ha): 100
Wild buckwheat plant response rating ([9]; Rate 8 g/ha): 100
Wild buckwheat plant response rating ([9]; Rate 16 g/ha): 100
Wild buckwheat plant response rating ([9]; Rate 32 g/ha): 100
Umbrella sedge plant response rating ([10]; Rate 4 g/ha): 0
Umbrella sedge plant response rating ([10]; Rate 8 g/ha): 0
Umbrella sedge plant response rating ([10]; Rate 16 g/ha): 0
Umbrella sedge plant response rating ([10]; Rate 32 g/ha): 0
Umbrella sedge plant response rating ([10]; Rate 64 g/ha): 50
Kochia plant response rating ([11]; Rate 2 g/ha): 20
Kochia plant response rating ([11]; Rate 4 g/ha): 60
Kochia plant response rating ([11]; Rate 8 g/ha): 80
Kochia plant response rating ([11]; Rate 16 g/ha): 100
Kochia plant response rating ([11]; Rate 32 g/ha): 100
Downy brome plant response rating ([12]; Rate 2 g/ha): 0
Downy brome plant response rating ([12]; Rate 4 g/ha): 0
Downy brome plant response rating ([12]; Rate 8 g/ha): 0
Downy brome plant response rating ([12]; Rate 16 g/ha): 10
Downy brome plant response rating ([12]; Rate 32 g/ha): 10
Duck salad plant response rating ([13]; Rate 4 g/ha): 0
Duck salad plant response rating ([13]; Rate 8 g/ha): 0
Duck salad plant response rating ([13]; Rate 16 g/ha): 0
Duck salad plant response rating ([13]; Rate 32 g/ha): 0
Duck salad plant response rating ([13]; Rate 64 g/ha): 10
Rape plant response rating ([14]; Rate 2 g/ha): 0
Rape plant response rating ([14]; Rate 4 g/ha): 0
Rape plant response rating ([14]; Rate 8 g/ha): 0
Rape plant response rating ([14]; Rate 16 g/ha): 0
Rape plant response rating ([14]; Rate 32 g/ha): 20
Arrowhead plant response rating ([15]; Rate 4 g/ha): 0
Arrowhead plant response rating ([15]; Rate 8 g/ha): 0
Arrowhead plant response rating ([15]; Rate 16 g/ha): 0
Arrowhead plant response rating ([15]; Rate 64 g/ha): 0
